# Source: PubChem BioAssay AID2060612 (Molecular Pharmacology Branch, DTP, NCI, 2025)
# System: 565232-114-T-J1-PDC complex spheroid viability
# Experiment: Anticancer human tumor 565232-114-T-J1-PDC patient-derived bladder carcinoma cell line growth inhibition [CLK]
# Conditions: for viability, T/C: stronger effect = lower value
# Outline: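 Multi-cell-type spheroids combined patient-derived tumor cells with HUVEC endothelial cells and human mesenchymal stem cells. Paired agents were dosed in half-log steps down from about clinical Cmax, or from 10 microM where Cmax was unknown.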
# [1] = curve of first compound, second compound 0.0316 µM
# [2] = curve of first compound, second compound 0.1 µM
# [3] = curve of first compound, second compound 0.316 µM
# [4] = curve of first compound, second compound 1 µM
# [5] = curve of first compound, second compound 3.16 µM
# [6] = curve of first compound, second compound 10 µM
# [7] = second compound 0.0316 µM, first compound 0.0316 µM
# [8] = second compound 0.0316 µM, first compound 0.1 µM
# [9] = second compound 0.0316 µM, first compound 0.316 µM
# [10] = second compound 0.0316 µM, first compound 1 µM
# [11] = second compound 0.0316 µM, first compound 3.16 µM
# [12] = second compound 0.0316 µM, first compound 10 µM
# [13] = second compound 0.1 µM, first compound 0.0316 µM
# [14] = second compound 0.1 µM, first compound 0.1 µM
# [15] = second compound 0.1 µM, first compound 0.316 µM
# [16] = second compound 0.1 µM, first compound 1 µM
# [17] = second compound 0.1 µM, first compound 3.16 µM
# [18] = second compound 0.1 µM, first compound 10 µM
# [19] = second compound 0.316 µM, first compound 0.0316 µM
# [20] = second compound 0.316 µM, first compound 0.1 µM
# [21] = second compound 0.316 µM, first compound 0.316 µM
# [22] = second compound 0.316 µM, first compound 1 µM
# [23] = second compound 0.316 µM, first compound 3.16 µM
# [24] = second compound 0.316 µM, first compound 10 µM
# [25] = second compound 1 µM, first compound 0.0316 µM
# [26] = second compound 1 µM, first compound 0.1 µM
# [27] = second compound 1 µM, first compound 0.316 µM
# [28] = second compound 1 µM, first compound 1 µM
# [29] = second compound 1 µM, first compound 3.16 µM
# [30] = second compound 1 µM, first compound 10 µM
# [31] = second compound 3.16 µM, first compound 0.0316 µM
# [32] = second compound 3.16 µM, first compound 0.1 µM
# [33] = second compound 3.16 µM, first compound 0.316 µM
# [34] = second compound 3.16 µM, first compound 1 µM
# [35] = second compound 3.16 µM, first compound 3.16 µM
# [36] = second compound 3.16 µM, first compound 10 µM
# [37] = second compound 10 µM, first compound 0.0316 µM
# [38] = second compound 10 µM, first compound 0.1 µM
# [39] = second compound 10 µM, first compound 0.316 µM
# [40] = second compound 10 µM, first compound 1 µM
# [41] = second compound 10 µM, first compound 3.16 µM
# [42] = second compound 10 µM, first compound 10 µM
# 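Note: spheroids exposed to compounds for 7 days before readout.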
# 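Throughout, for viability, T/C: 100% = DMSO vehicle wells with luminescence normalized to vehicle control.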
smiles,measurement,setting,value
COc1cccc2c1C(=O)c1c(O)c3c(c(O)c1C2=O)CC(O)(C(=O)CO)CC3OC1CC(N)C(O)C(C)O1 (stereo not drawn) + CN1CCN(c2cc(C(=O)Nc3cc4cc(-c5cnn(C)c5)ccc4cn3)ccn2)CC1,IC50,[1],308 nM
same,IC50,[2],247 nM
same,IC50,[3],< 31.6 nM
same,IC50,[4],< 31.6 nM
same,IC50,[5],< 31.6 nM
same,IC50,[6],< 31.6 nM
same,"viability, T/C",[7],105%
same,"viability, T/C",[8],109%
same,"viability, T/C",[9],48.1%
same,"viability, T/C",[10],9.14%
same,"viability, T/C",[11],0.19%
same,"viability, T/C",[12],0.25%
same,"viability, T/C",[13],115%
same,"viability, T/C",[14],89.1%
same,"viability, T/C",[15],40.7%
same,"viability, T/C",[16],5.59%
same,"viability, T/C",[17],0.19%
same,"viability, T/C",[18],0.21%
same,"viability, T/C",[19],18.3%
same,"viability, T/C",[20],13.6%
same,"viability, T/C",[21],6.17%
same,"viability, T/C",[22],0.17%
same,"viability, T/C",[23],1.79%
same,"viability, T/C",[24],0.82%
same,"viability, T/C",[25],0.13%
same,"viability, T/C",[26],0.18%
same,"viability, T/C",[27],0.16%
same,"viability, T/C",[28],0.17%
same,"viability, T/C",[29],3.15%
same,"viability, T/C",[30],0.74%
same,"viability, T/C",[31],1.46%
same,"viability, T/C",[32],0.16%
same,"viability, T/C",[33],0.94%
same,"viability, T/C",[34],2.29%
same,"viability, T/C",[35],2.17%
same,"viability, T/C",[36],1.43%
same,"viability, T/C",[37],0.09%
same,"viability, T/C",[38],0.11%
same,"viability, T/C",[39],0.22%
same,"viability, T/C",[40],2.57%
same,"viability, T/C",[41],0.16%
same,"viability, T/C",[42],1.03%
COc1c(OCCCN2CCOCC2)ccc2c3n(c(=NC(=O)c4cnc(N)nc4)nc12)CCN3 + CNC(=O)c1ccc(Nc2nc(OC3CCCC3)c3c(-c4ccc5nc(C)oc5c4)c[nH]c3n2)c(OC)c1,IC50,[1],> 1000 nM
same,IC50,[2],< 3.16 nM
same,IC50,[3],< 3.16 nM
same,IC50,[4],< 3.16 nM
same,IC50,[5],< 3.16 nM
same,IC50,[6],< 3.16 nM
same,"viability, T/C","second compound 0.0316 µM, first compound 0.00316 µM",106%
same,"viability, T/C","second compound 0.0316 µM, first compound 0.01 µM",81.5%
same,"viability, T/C",[7],84.9%
same,"viability, T/C",[8],94.5%
same,"viability, T/C",[9],118%
same,"viability, T/C",[10],68.7%
same,"viability, T/C","second compound 0.1 µM, first compound 0.00316 µM",39.5%
same,"viability, T/C","second compound 0.1 µM, first compound 0.01 µM",38.5%
same,"viability, T/C",[13],29.8%
same,"viability, T/C",[14],31.7%
same,"viability, T/C",[15],22.6%
same,"viability, T/C",[16],20.8%
same,"viability, T/C","second compound 0.316 µM, first compound 0.00316 µM",26.9%
same,"viability, T/C","second compound 0.316 µM, first compound 0.01 µM",24.1%
same,"viability, T/C",[19],22.4%
same,"viability, T/C",[20],18.9%
same,"viability, T/C",[21],15.8%
same,"viability, T/C",[22],9.27%
same,"viability, T/C","second compound 1 µM, first compound 0.00316 µM",15.4%
same,"viability, T/C","second compound 1 µM, first compound 0.01 µM",16.9%
same,"viability, T/C",[25],14.5%
same,"viability, T/C",[26],8.97%
same,"viability, T/C",[27],5.69%
same,"viability, T/C",[28],3.61%
same,"viability, T/C","second compound 3.16 µM, first compound 0.00316 µM",15.6%
same,"viability, T/C","second compound 3.16 µM, first compound 0.01 µM",9.18%
same,"viability, T/C",[31],8.92%
same,"viability, T/C",[32],4.99%
same,"viability, T/C",[33],5.15%
same,"viability, T/C",[34],1.71%
same,"viability, T/C","second compound 10 µM, first compound 0.00316 µM",12.3%
same,"viability, T/C","second compound 10 µM, first compound 0.01 µM",10.3%
same,"viability, T/C",[37],5.74%
same,"viability, T/C",[38],5.45%
same,"viability, T/C",[39],3.3%
same,"viability, T/C",[40],1.73%
CCCS(=O)(=O)Nc1ccc(F)c(C(=O)c2c[nH]c3ncc(-c4ccc(Cl)cc4)cc23)c1F + CNC(=O)c1ccc(Nc2nc(OC3CCCC3)c3c(-c4ccc5nc(C)oc5c4)c[nH]c3n2)c(OC)c1,IC50,[1],5980 nM
same,IC50,[2],455 nM
same,IC50,[3],< 31.6 nM
same,IC50,[4],< 31.6 nM
same,IC50,[5],< 31.6 nM
same,IC50,[6],< 31.6 nM
same,"viability, T/C",[7],95.7%
same,"viability, T/C",[8],75.2%
same,"viability, T/C",[9],75.3%
same,"viability, T/C",[10],96.2%
same,"viability, T/C",[11],110%
same,"viability, T/C",[12],17.2%
same,"viability, T/C",[13],56.5%
same,"viability, T/C",[14],56.1%
same,"viability, T/C",[15],50.7%
same,"viability, T/C",[16],46.6%
same,"viability, T/C",[17],30.8%
same,"viability, T/C",[18],9.67%
same,"viability, T/C",[19],36.1%
same,"viability, T/C",[20],35.9%
same,"viability, T/C",[21],32.9%
same,"viability, T/C",[22],32.5%
same,"viability, T/C",[23],26.3%
same,"viability, T/C",[24],6.44%
same,"viability, T/C",[25],23.7%
same,"viability, T/C",[26],27.2%
same,"viability, T/C",[27],26.4%
same,"viability, T/C",[28],23.1%
same,"viability, T/C",[29],16.4%
same,"viability, T/C",[30],5.45%
same,"viability, T/C",[31],19.1%
same,"viability, T/C",[32],20.5%
same,"viability, T/C",[33],18.4%
same,"viability, T/C",[34],18.8%
same,"viability, T/C",[35],18.9%
same,"viability, T/C",[36],4.02%
same,"viability, T/C",[37],20.4%
same,"viability, T/C",[38],17.8%
same,"viability, T/C",[39],18.1%
same,"viability, T/C",[40],17.2%
same,"viability, T/C",[41],11.6%
same,"viability, T/C",[42],3.9%
CC(Nc1ccc2c(c1)OCCn1cc(N3C(=O)OCC3C(F)F)nc1-2)C(N)=O (stereo not drawn),"viability, T/C",compound 0.0316 µM,99.5%
same,"viability, T/C",compound 0.1 µM,83.6%
same,"viability, T/C",compound 0.316 µM,92.9%
same,"viability, T/C",compound 1 µM,98.5%
same,"viability, T/C",compound 3.16 µM,92.8%
same,"viability, T/C",compound 10 µM,102%
same,IC50,curve of compound,> 10000 nM
